Assays:
ERK1 = biological target: T1, ERK1 (Homo sapiens, UniProt P27361); assay: ERK1 enzyme activity test (ADP-Glo Kinase Assay); type: biochemical; conditions: read-out: IC50 value of the inhibition on ERK1 enzyme activity
T1 construct: purchased R&D 1879-KS-010
Method: (§1) The purpose of this experiment is to detect the inhibitory ability of the compounds on the ERK1 enzyme activity, and evaluate the in vitro activity of the compounds based on the IC50. The ADP-Glo™ Kinase Assay Kit is used in this experiment. Under the action of the enzyme, the substrate is phosphorylated and ADP is produced at the same time. The ADP-Glo reagent is added to remove the unreacted ATP in the reaction system, and the ADP produced by the reaction is detected with the kinase detection reagent. In the presence of the compound, the inhibition rate of the compound is calculated by measuring the signal value.
(§2) ATP was diluted to 300 μM with the buffer. The compound was dissolved in DMSO to prepare a stock solution with an initial concentration of 20 mM, and then Bravo (SGC120TH34702, Agilent Technologies) was used to dilute the stock solution to desired concentrations. Finally, a 30 μL of a mixed solution of enzyme and substrate, and 1 μL, of different concentrations of the compound (the initial concentration is 50 μM, 4-fold dilution) were added to each well of the 384-well plate, and the plate was incubated at 30° C. for 10 minutes, and finally 1 μL of 300 μM ATP solution was added to each well, and the plate was incubated at 30° C. for 2 hours. Then 5 μL of ADP-Glo was added, and the plate was incubated at 30° C. for 40 minutes. Then 10 μL of Kinase detection buffer was added, and the plate was incubated at 30° C. for 40 minutes. The 384-well plate was taken out and placed in a microplate reader (BMG labtech, PHERAstar FS), and the chemiluminescence was measured by the microplate reader.
(§3) Microsoft Excel, Graphpad Prism 5 was used to process and analyze the data.

Colo205 cells = assay: In vitro proliferation inhibition test on Colo205 tumor cells (CellTiter-Glo); type: cell-based; conditions: Homo sapiens, COLO 205, 72 h; 3 days of culture, CTG; read-out: IC50 value of the inhibition on in vitro Colo205 tumor cell proliferation
Method: The purpose of this experiment is to test the inhibitory activity of the compounds on the proliferation of Colo205 cells (CCL-222, ATCC) in vitro. The cells were treated in vitro with different concentrations of the compounds. After 3 days of culture, the cell proliferation was tested with CTG (CellTiter-Glo® Luminescent Cell Viability Assay, Promega, Catalog No. G7573) reagent, and the in vitro activity of the compounds was evaluated according to the IC50 value.
In the following, taking the in vitro proliferation inhibition test method of Colo205 cells as an example, the method in the present disclosure for testing the in vitro proliferation inhibitory activity of the compounds of the present disclosure is described. This method is also applicable to, but not limited to, the in vitro proliferation inhibitory activity test on other tumor cells.
Colo205 cells were digested, centrifuged and then resuspended. The single cell suspension was mixed well, and the density of viable cells was adjusted to 5.0×10^4 cells/ml with cell culture medium (RPMI1640+2% FBS), and 95 μl/well was added to a 96-well cell culture plate. Only 100 μl medium was added to the peripheral wells of the 96-well plate. The culture plate was incubated in an incubator for 24 hours (37° C., 5% CO2).
The compound was dissolved in DMSO and prepared into a stock solution with an initial concentration of 20 mM. The initial concentration of the small molecule compound was 2 mM, and then 4-fold diluted into 9 points, and the 10th point is DMSO. Another 96-well plate was taken and 90 μl of cell culture medium (RPMI1640+2% FBS) was added to each well, then 10 μl of different concentrations of the test sample was added to each well. The mixture was mixed well, and then 5 μL of different concentrations of the test sample was added to the cell culture plate with duplicate well for each sample. The culture plate was incubated in an incubator for 3 days (37° C., 5% CO2). The 96-well cell culture plate was taken out, 50 μL CTG solution was added to each well, and the plate was incubated for 10 minutes at room temperature. In a microplate reader (BMG labtech, PHERAstar FS), chemiluminescence was measured with the microplate reader.
as §3

ERK2 = biological target: T2, ERK2 (Homo sapiens, UniProt P28482); assay: ERK2 enzyme activity test (ADP-Glo Kinase Assay); type: biochemical; conditions: read-out: IC50 value of the inhibition on ERK2 enzyme activity
T2 construct: purchased R&D 1879-KS-010
Method: as §1, with “ERK2” for “ERK1”, “by” for “with”
as §2, with “to 500” for “to 300”, “a 3” for “a 30”, “1 μL” for “1 μL,”, “of 500” for “of 300”, “of kinase” for “of Kinase”
as §3

T1 sequence (P27361 whole entry): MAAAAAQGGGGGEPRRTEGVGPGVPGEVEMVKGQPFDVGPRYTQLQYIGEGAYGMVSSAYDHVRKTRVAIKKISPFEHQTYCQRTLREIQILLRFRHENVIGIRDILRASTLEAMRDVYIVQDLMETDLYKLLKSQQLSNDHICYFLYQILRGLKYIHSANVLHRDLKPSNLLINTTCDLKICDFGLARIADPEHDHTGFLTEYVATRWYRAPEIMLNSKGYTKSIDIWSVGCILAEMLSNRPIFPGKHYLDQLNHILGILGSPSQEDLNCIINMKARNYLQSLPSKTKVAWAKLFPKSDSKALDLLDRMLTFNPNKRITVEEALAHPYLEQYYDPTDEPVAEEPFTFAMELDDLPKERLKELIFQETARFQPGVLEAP
T2 sequence (P28482 2-360 limits assumed): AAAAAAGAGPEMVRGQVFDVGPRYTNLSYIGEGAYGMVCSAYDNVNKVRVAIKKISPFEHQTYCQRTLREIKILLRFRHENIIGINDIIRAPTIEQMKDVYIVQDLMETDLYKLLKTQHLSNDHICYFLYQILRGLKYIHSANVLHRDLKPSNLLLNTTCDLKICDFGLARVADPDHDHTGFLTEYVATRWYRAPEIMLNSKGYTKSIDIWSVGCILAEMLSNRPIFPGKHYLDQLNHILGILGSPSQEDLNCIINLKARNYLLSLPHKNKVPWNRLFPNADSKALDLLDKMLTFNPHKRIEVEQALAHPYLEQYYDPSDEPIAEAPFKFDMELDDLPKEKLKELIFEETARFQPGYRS

Row | Compound | IC50 (ERK1) [nM] | IC50 (Colo205 cells) [nM] | IC50 (ERK2) [nM]
1 | Cn1nccc1Nc1ncc(Cl)c(-c2cc3n(c2)C(=O)N([C@H](CO)c2cccc(Cl)c2)C3)n1 [Example 2, (S)-6-(5-Chloro-2-((1-methyl-1H-pyrazol-5-yl)amino)pyrimidin-4-yl)-2-(1-(3-chlorophenyl)-2-hydroxyethyl)-1H-pyrrolo[1,2-c]imidazol-3(2H)-one] |  | 32 | 3
2 | O=C1N([C@H](CO)c2cccc(Cl)c2)Cc2cc(-c3nc(NC4CCOCC4)ncc3Cl)cn21 [Example 4, (S)-6-(5-Chloro-2-((tetrahydro-2H-pyran-4-yl)amino)pyrimidin-4-yl)-2-(1-(3-chlorophenyl)-2-hydroxyethyl)-1H-pyrrolo[1,2-c]imidazol-3(2H)-one] |  | 82 | 6
3 | C[C@@H](CO)Nc1ncc(Cl)c(-c2cc3n(c2)C(=O)N([C@H](CO)c2cccc(Cl)c2)C3)n1 [Example 5, 6-(5-Chloro-2-(((S)-1-hydroxypropan-2-yl)amino)pyrimidin-4-yl)-2-((S)-1-(3-chlorophenyl)-2-hydroxyethyl)-1H-pyrrolo[1,2-c]imidazol-3(2H)-one] | 10 | 81 | 
4 | O=C1N([C@H](CO)c2cccc(Cl)c2)Cc2cc(-c3nc(NC4CC(O)C(F)C4)ncc3Cl)cn21 (stereo partly drawn) [Example 7, 6-(5-Chloro-2-((3-fluoro-4-hydroxycyclopentyl)amino)pyrimidin-4-yl)-2-((S)-1-(3-chlorophenyl)-2-hydroxyethyl)-1H-pyrrolo[1,2-c]imidazol-3(2H)-one] |  | 158 | 63
5 | Cc1cnc(Nc2ccnn2C)nc1-c1cc2n(c1)C(=O)N([C@H](CO)c1cccc(Cl)c1)CC2 [Example 9, (S)-2-(1-(3-Chlorophenyl)-2-hydroxyethyl)-6-(5-methyl-2-((1-methyl-1H-pyrazol-5-yl)amino)pyrimidin-4-yl)-3,4-dihydropyrrolo[1,2-c]pyrimidin-1(2H)-one] | 12 | 77 | 
6 | Cn1nccc1Nc1nccc(-c2cc3n(c2)C(=O)N([C@H](CO)c2ccc(F)c(Cl)c2)C3)n1 [Example 16, (S)-2-(1-(3-Chloro-4-fluorophenyl)-2-hydroxyethyl)-6-(2-((1-methyl-1H-pyrazol-5-yl)amino)pyrimidin-4-yl)-1H-pyrrolo[1,2-c]imidazol-3(2H)-one] | 70 | 180 | 44
7 | Cn1nccc1Nc1nccc(-c2cc3n(c2)C(=O)N([C@H](CO)c2cccc(F)c2)C3)n1 [Example 19, (S)-2-(1-(3-Fluorophenyl)-2-hydroxyethyl)-6-(2-((1-methyl-1H-pyrazol-5-yl)amino)pyrimidin-4-yl)-1H-pyrrolo[1,2-c]imidazol-3(2H)-one] | 24 | 101 | 20
8 | Cn1nccc1Nc1nccc(-c2cc3n(c2)C(=O)N([C@H](CO)c2ccc(Cl)cc2)C3)n1 [Example 21, (S)-2-(1-(4-Chlorophenyl)-2-hydroxyethyl)-6-(2-((1-methyl-1H-pyrazol-5-yl)amino)pyrimidin-4-yl)-1H-pyrrolo[1,2-c]imidazol-3(2H)-one] | 67 | 120 | 45

The remaining lines, values ahead:

Row | IC50 (ERK1) [nM] | IC50 (Colo205 cells) [nM] | IC50 (ERK2) [nM] | Compound
9 | 9 | 90 | 2 | COc1cc(F)cc([C@@H](CO)N2Cc3cc(-c4nc(Nc5ccnn5C)ncc4C)cn3C2=O)c1 [Example 1, (S)-2-(1-(3-Fluoro-5-methoxyphenyl)-2-hydroxyethyl)-6-(5-methyl-2-((1-methyl-1H-pyrazol-5-yl)amino)pyrimidin-4-yl)-1H-pyrrolo[1,2-c]imidazol-3(2H)-one]
10 | 14 | 74 | 10 | Cc1cnc(Nc2ccnn2C)nc1-c1cc2n(c1)C(=O)N([C@H](CO)c1ccc(F)c(Cl)c1)C2 [Example 6, (S)-2-(1-(3-Chloro-4-fluorophenyl)-2-hydroxyethyl)-6-(5-methyl-2-((1-methyl-1H-pyrazol-5-yl)amino)pyrimidin-4-yl)-1H-pyrrolo[1,2-c]imidazol-3(2H)-one]
11 |  |  | 18 | Cc1cnc(Nc2ccnn2C)nc1-c1cc2n(c1)C(=O)N([C@H](CN)c1cccc(Cl)c1)C2 [Example 11, (S)-2-(2-Amino-1-(3-chlorophenyl)ethyl)-6-(5-methyl-2-((1-methyl-1H-pyrazol-5-yl)amino)pyrimidin-4-yl)-1H-pyrrolo[1,2-c]imidazol-3(2H)-one]
12 |  |  | 45 | Cc1cnc(Nc2ccnn2C)nc1-c1cc2n(c1)C(=O)N([C@H](C)c1cccc(Cl)c1)C2 [Example 12, (R)-2-(1-(3-Chlorophenyl)ethyl)-6-(5-methyl-2-((1-methyl-1H-pyrazol-5-yl)amino)pyrimidin-4-yl)-1H-pyrrolo[1,2-c]imidazol-3(2H)-one]
13 | 2 | 99 | 2 | CNC[C@H](c1cccc(Cl)c1)N1Cc2cc(-c3nc(Nc4ccnn4C)ncc3C)cn2C1=O [Example 13, (S)-2-(1-(3-Chlorophenyl)-2-(methylamino)ethyl)-6-(5-methyl-2-((1-methyl-1H-pyrazol-5-yl)amino)pyrimidin-4-yl)-1H-pyrrolo[1,2-c]imidazol-3(2H)-one]
14 |  | 92 | 5 | Cc1cnc(Nc2ccnn2C)nc1-c1cc2n(c1)C(=O)N([C@H](CO)c1ccc(Cl)c(F)c1)C2 [Example 14, (S)-2-(1-(4-Chloro-3-fluorophenyl)-2-hydroxyethyl)-6-(5-methyl-2-((1-methyl-1H-pyrazol-5-yl)amino)pyrimidin-4-yl)-1H-pyrrolo[1,2-c]imidazol-3(2H)-one]
15 |  |  | 16 | Cc1cnc(Nc2ccnn2C)nc1-c1cc2n(c1)C(=O)N(Cc1ccc(F)c(F)c1)C2 [Example 18, 2-(3,4-Difluorobenzyl)-6-(5-methyl-2-((1-methyl-1H-pyrazol-5-yl)amino)pyrimidin-4-yl)-1H-pyrrolo[1,2-c]imidazol-3(2H)-one]

Reference: US20220185818A1, “PYRROLOHETEROCYCLIC DERIVATIVE, PREPARATION METHOD THEREFOR, AND APPLICATION THEREOF IN MEDICINE” (Jiangsu Hengrui Medicine Co., Ltd., priority 2019, published 2022)
